{"source": "patent US9993423B2", "about": "“Microneedle deposition method” (COSMED PHARMACEUTICAL CO., LTD., priority 2011, dated 2018)", "system": "diabetes model rats created by administration of streptozotocin", "test": "Blood glucose level measurement test after insulin administration", "assay_type": "in vivo, rat", "details": "0.5, 1 and 2 hours, fasted diabetes model rats, FIG. 2", "experimental": "Insulin was transdermally administered to rats using the manufactured microneedle array.\nIn diabetes model rats created by administration of streptozotocin (Body weight: about 300 g), their abdomens were dehaired. After these rats were fasted for 14 hours or longer, the microneedle array was inserted to the dehaired skin and fixed to the skin by YU-KI BAN (NITTO MEDICAL CORPORATION). Blood was sampled 0.5, 1 and 2 hours after administration of the microneedle array, and the blood glucose levels were measured. For measurement of the blood glucose levels, Glucose CII-test kit (Wako Pure Chemical Industries, Ltd.) was used. The tests were conducted in four cases.\nInsulin was subcutaneously injected to rats.\nAfter the diabetes model rats were fasted for 14 hours or longer, 0.25 units of insulin were subcutaneously injected. Blood was sampled 0.5, 1 and 2 hours after administration of insulin, and the blood glucose levels were measured. For measurement of the blood glucose levels, Glucose CII-test kit was used like Example 1. […]. The tests were conducted in four cases.\nAs a standard of the blood glucose level measurement test, a control (no insulin) was measured.\nAfter the diabetes model rats were fasted for 14 hours or longer, blood was sampled 0.5, 1 and 2 hours later, and the blood glucose levels were measured. […]", "data": [{"substance": "insulin: Bovine insulin (NACALAI TESQUE), given on hyaluronic acid microneedle array tips (0.25 unit per array) or by subcutaneous injection", "values": [{"measurement": "blood glucose level (relative value, time zero = 100)", "setting": "microneedle array, 0.25 unit insulin, transdermal on dehaired abdomen", "result": "lowered"}, {"measurement": "blood glucose level (relative value, time zero = 100)", "setting": "subcutaneous injection, 0.25 units of insulin", "result": "lowered"}]}]}
